Assay results: PubChem BioAssay AID248 (DTP/NCI, 2004)
“And” between values parts separate entries of the source, which are not always exact repeats. Equal entries are not always repeated. Inconclusive results and toxic doses are left out.

System: L1210 leukemia ip in BDF1 mice, survival T/C
Test: NCI In Vivo Anticancer Drug Screen. Data for tumor model L1210 Leukemia (intraperitoneal) in B6D2F1 (BDF1) mice
Conditions: endpoint: mean survival time, higher = longer survival
How it was run: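 Survival endpoint. Drug-treated group vs vehicle group, expressed as T divided by C. Tumor passaged by transplantation.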

[1] = dose: 100.0 mg/kg/injection, schedule: Q01DX009 (ip), vehicle: Klucel (hydroxypropylcellulose) (HPC)
[2] = dose: 200.0 mg/kg/injection, schedule: Q01DX009 (ip), vehicle: Klucel (hydroxypropylcellulose) (HPC)
[3] = dose: 400.0 mg/kg/injection, schedule: Q01DX009 (ip), vehicle: Klucel (hydroxypropylcellulose) (HPC)
[4] = dose: 100.0 mg/kg/injection, schedule: Q01DX001 (ip), vehicle: saline with Tween-80
[5] = dose: 200.0 mg/kg/injection, schedule: Q01DX001 (ip), vehicle: saline with Tween-80
[6] = dose: 400.0 mg/kg/injection, schedule: Q01DX001 (ip), vehicle: saline with Tween-80
[7] = dose: 100.0 mg/kg/injection, schedule: Q04DX003 (ip), vehicle: Klucel (hydroxypropylcellulose) (HPC)
[8] = dose: 200.0 mg/kg/injection, schedule: Q04DX003 (ip), vehicle: Klucel (hydroxypropylcellulose) (HPC)
[9] = dose: 400.0 mg/kg/injection, schedule: Q04DX003 (ip), vehicle: Klucel (hydroxypropylcellulose) (HPC)
[10] = dose: 25.0 mg/kg/injection, schedule: Q04DX002 (ip), vehicle: Klucel (hydroxypropylcellulose) (HPC)
[11] = dose: 50.0 mg/kg/injection, schedule: Q04DX002 (ip), vehicle: Klucel (hydroxypropylcellulose) (HPC)
[12] = dose: 100.0 mg/kg/injection, schedule: Q04DX002 (ip), vehicle: Klucel (hydroxypropylcellulose) (HPC)

O=C(Nc1ccc(C2=NCCN2)cc1)Nc1cccc(NC(=O)Nc2cccc(C3=NCCN3)c2)c1
T/C (dose: 1.0 mg/kg/injection, schedule: Q01DX Z (ip), vehicle: carboxymethylcellulose (CMC)): 120 % of control and 90 % of control | T/C (dose: 2.0 mg/kg/injection, schedule: Q01DX Z (ip), vehicle: carboxymethylcellulose (CMC)): 101 % of control and 107 % of control | T/C (dose: 4.0 mg/kg/injection, schedule: Q01DX Z (ip), vehicle: carboxymethylcellulose (CMC)): 113 % of control | T/C (dose: 8.0 mg/kg/injection, schedule: Q01DX Z (ip), vehicle: carboxymethylcellulose (CMC)): 121 % of control and 244 % of control | T/C (dose: 8.0 mg/kg/injection, schedule: Q01DX Z (ip), vehicle: water): 286 % of control | T/C (dose: 16.0 mg/kg/injection, schedule: Q01DX Z (ip), vehicle: carboxymethylcellulose (CMC)): 332 % of control | T/C (dose: 16.0 mg/kg/injection, schedule: Q01DX Z (ip), vehicle: water): 172 % of control | T/C (dose: 31.0 mg/kg/injection, schedule: Q01DX Z (oral), vehicle: water): 104 % of control | T/C (dose: 62.0 mg/kg/injection, schedule: Q01DX Z (oral), vehicle: water): 112 % of control | T/C (dose: 125.0 mg/kg/injection, schedule: Q01DX Z (oral), vehicle: water): 104 % of control | T/C (dose: 250.0 mg/kg/injection, schedule: Q01DX Z (oral), vehicle: water): 102 % of control

CC(=O)CC(C[N+](=O)[O-])c1ccccc1 (configuration not stated)
T/C [1]: 100 % of control | T/C [2]: 100 % of control | T/C [3]: 100 % of control

COC(=O)c1ccc(C(C)=O)cc1
T/C [4]: 103 % of control | T/C [5]: 97 % of control | T/C [6]: 100 % of control

Cc1ccc(S(=O)(=O)N(C)c2ccc3cc(Br)ccc3c2)cc1
T/C (dose: 100.0 mg/kg/injection, schedule: Q01DX005 (ip), vehicle: Klucel (hydroxypropylcellulose) (HPC)): 94 % of control | T/C [7]: 95 % of control | T/C (dose: 200.0 mg/kg/injection, schedule: Q01DX005 (ip), vehicle: Klucel (hydroxypropylcellulose) (HPC)): 100 % of control | T/C [8]: 97 % of control | T/C (dose: 400.0 mg/kg/injection, schedule: Q01DX005 (ip), vehicle: Klucel (hydroxypropylcellulose) (HPC)): 91 % of control | T/C [9]: 97 % of control

N#Cc1cc2ccccc2n(O)c1=N
T/C (dose: 75.0 mg/kg/injection, schedule: Q04DX003 (ip), vehicle: saline): 93 % of control | T/C (dose: 150.0 mg/kg/injection, schedule: Q04DX003 (ip), vehicle: saline): 109 % of control | T/C (dose: 300.0 mg/kg/injection, schedule: Q04DX003 (ip), vehicle: saline): 107 % of control

c1ccc2c(c1)[nH]c1c2c[n+]2c3c(cccc13)CCC2
T/C (dose: 3.13 mg/kg/injection, schedule: Q01DX009 (ip), vehicle: saline): 105 % of control | T/C (dose: 6.25 mg/kg/injection, schedule: Q01DX009 (ip), vehicle: saline): 105 % of control | T/C (dose: 12.5 mg/kg/injection, schedule: Q01DX009 (ip), vehicle: saline): 105 % of control

CC(C)C(=O)[O][Pb]([c]1ccccc1)([c]1ccccc1)[c]1ccccc1
T/C (dose: 12.5 mg/kg/injection, schedule: Q04DX002 (ip), vehicle: Klucel (hydroxypropylcellulose) (HPC)): 101 % of control | T/C [10]: 97 % of control | T/C [11]: 97 % of control

NNC(=O)CSSCC(=O)NN
T/C [12]: 101 % of control

CC(=O)Nc1cc(C(=O)Nc2ccc(C3=NCCN3)cc2)ccc1C(=O)Nc1ccc(C2=NCCN2)cc1
T/C (dose: 7.5 mg/kg/injection, schedule: Q01DX Z (oral), vehicle: saline): 103 % of control | T/C (dose: 15.0 mg/kg/injection, schedule: Q01DX Z (ip), vehicle: saline): 271 % of control | T/C (dose: 15.0 mg/kg/injection, schedule: Q01DX Z (oral), vehicle: saline): 105 % of control | T/C (dose: 30.0 mg/kg/injection, schedule: Q01DX Z (oral), vehicle: saline): 104 % of control | T/C (dose: 60.0 mg/kg/injection, schedule: Q01DX Z (oral), vehicle: saline): 105 % of control | T/C (dose: 62.5 mg/kg/injection, schedule: Q## X009 (oral), vehicle: saline): 97 % of control | T/C (dose: 75.0 mg/kg/injection, schedule: Q01DX Z (oral), vehicle: saline): 90 % of control | T/C (dose: 125.0 mg/kg/injection, schedule: Q## X009 (oral), vehicle: saline): 97 % of control | T/C (dose: 150.0 mg/kg/injection, schedule: Q01DX Z (oral), vehicle: saline): 86 % of control | T/C (dose: 500.0 mg/kg/injection, schedule: Q## X009 (oral), vehicle: saline): 101 % of control

CCN(CC)Cc1ccccc1COC(=O)c1ccc(C)cc1
T/C [10]: 97 % of control | T/C [11]: 97 % of control | T/C [12]: 94 % of control

CCCCCC[Se][Se]CCCCCC
T/C (dose: 6.25 mg/kg/injection, schedule: Q01DX009 (ip), vehicle: Klucel (hydroxypropylcellulose) (HPC)): 96 % of control | T/C (dose: 12.5 mg/kg/injection, schedule: Q01DX009 (ip), vehicle: Klucel (hydroxypropylcellulose) (HPC)): 96 % of control | T/C (dose: 25.0 mg/kg/injection, schedule: Q01DX009 (ip), vehicle: Klucel (hydroxypropylcellulose) (HPC)): 91 % of control | T/C (dose: 25.0 mg/kg/injection, schedule: Q04DX003 (ip), vehicle: Klucel (hydroxypropylcellulose) (HPC)): 90 % of control | T/C (dose: 50.0 mg/kg/injection, schedule: Q04DX003 (ip), vehicle: Klucel (hydroxypropylcellulose) (HPC)): 103 % of control and 107 % of control

COC(=O)c1ccc(N(C)Cc2cnc3nc(N)nc(SCc4ccccc4)c3n2)cc1
T/C [4]: 97 % of control | T/C [5]: 94 % of control | T/C [6]: 101 % of control

O=C(Nc1ccc2ccccc2c1)c1ccc(F)cc1
T/C [1]: 97 % of control | T/C [2]: 102 % of control | T/C [3]: 94 % of control

CCOC(=O)c1ccc(NC(=S)N2CCOCC2)cc1
T/C [1]: 93 % of control | T/C [2]: 101 % of control | T/C [3]: 93 % of control

NC(=O)NOC(=O)c1ccccc1
T/C (dose: 50.0 mg/kg/injection, schedule: Q01DX Z (ip), vehicle: other): 103 % of control | T/C (dose: 100.0 mg/kg/injection, schedule: Q01DX Z (ip), vehicle: other): 103 % of control | T/C (dose: 450.0 mg/kg/injection, schedule: Q01DX Z (ip), vehicle: other): 111 % of control | T/C (dose: 600.0 mg/kg/injection, schedule: Q01DX Z (ip), vehicle: other): 112 % of control

CCC(C)C(C#N)(CCN(CC=C(C)C)CC=C(C)C)c1cccc2ccccc12 (configuration not stated)
T/C [7]: 96 % of control | T/C [8]: 110 % of control | T/C [9]: 93 % of control

CCCN(CCC)N=Nc1ccccc1-c1nc(N)nc(N)n1
T/C [7]: 101 % of control | T/C [8]: 119 % of control | T/C [9]: 109 % of control

CC1(C)N=C(N)N=C(N)N1c1cccc(OCc2cccc(NC(=O)CBr)c2)c1
T/C (dose: 5.0 mg/kg/injection, schedule: Q01DX001 (ip), vehicle: saline): 106 % of control | T/C (dose: 10.0 mg/kg/injection, schedule: Q01DX001 (ip), vehicle: saline): 103 % of control | T/C (dose: 20.0 mg/kg/injection, schedule: Q01DX001 (ip), vehicle: saline): 103 % of control | T/C (dose: 40.0 mg/kg/injection, schedule: Q01DX001 (ip), vehicle: saline): 97 % of control

C=CCO[Si](C=C)(OCC=C)OCC=C
T/C (dose: 75.0 mg/kg/injection, schedule: Q01DX001 (ip), vehicle: other): 116 % of control | T/C (dose: 150.0 mg/kg/injection, schedule: Q01DX001 (ip), vehicle: other): 95 % of control | T/C (dose: 300.0 mg/kg/injection, schedule: Q01DX001 (ip), vehicle: other): 94 % of control
